Data reported in US5214153A, “Actinoplanes transformation process anti-hypertensive compound and method of use thereas” (Merck & Co., Inc., priority 1992, dated 1993).

Molecular target: T1, Angiotensin II (A II) receptor (Oryctolagus cuniculus, UniProt P34976)
T1 construct: 125I-Sar1Ile8-angiotensin II displacement
T1 sequence (P34976 1-359): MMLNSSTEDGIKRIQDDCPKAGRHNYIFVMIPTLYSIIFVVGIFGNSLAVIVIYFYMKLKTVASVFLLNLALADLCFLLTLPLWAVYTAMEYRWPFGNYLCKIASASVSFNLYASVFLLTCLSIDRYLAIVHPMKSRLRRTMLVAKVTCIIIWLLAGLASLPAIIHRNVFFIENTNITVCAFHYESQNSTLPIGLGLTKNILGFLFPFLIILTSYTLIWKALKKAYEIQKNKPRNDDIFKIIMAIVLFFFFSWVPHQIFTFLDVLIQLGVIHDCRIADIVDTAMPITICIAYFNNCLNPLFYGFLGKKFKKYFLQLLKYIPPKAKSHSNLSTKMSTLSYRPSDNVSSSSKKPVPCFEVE
Test: Receptor Binding Assay Using Rabbit Aortae Membrane Preparation ("IC50" assay)
Description: This assay is also referred to herein as the "IC50 " assay.
Receptor Binding Assay Using Rabbit Aortae Membrane Preparation
Three frozen rabbit aortae (obtained from Pel-Freeze Biologicals) were suspended in 5 mM Tris-0.25M Sucrose, pH 7.4 buffer (50 mL) homogenized, and then centrifuged. The mixture was filtered through a cheesecloth and the supernatant was centrifuged for 30 minutes at 20,000 rpm at 4° C. The pellet thus obtained was resuspended in 30 mL of 50 mM Tris-5 mM MgCl2 buffer containing 0.2% Bovine Serum Albumin and 0.2 mg/mL Bacitratin and the suspension was used for 100 assay tubes. Samples tested for screening were done in duplicate. To the membrane preparation (0.25 mL) there was added ^125 I-Sar^1 Ile^8 -angiotensin II [obtained from New England Nuclear] (10 uL; 20,000 cpm) with or without the test sample and the mixture was incubated at 37° C. for 90 minutes. The mixture was then diluted with ice-cold 50 mM Tris-0.9% NaCl, pH 7.4 (4 mL) and filtered through a glass fiber filter (GF/B Whatman 2.4" diameter). The filter was soaked in scintillation cocktail (10 mL) and counted for radioactivity using Packard 2660 Tricarb liquid scintillation counter. […]

A II antagonist activity by the IC50 assay: exhibits A II antagonist activity
Structure (SMILES): CC(O)CCc1nc(Cl)c(CO)n1Cc1ccc(-c2ccccc2-c2nnn[nH]2)cc1 (stereo not shown) [compound (I)]
